Measurements published in paper PMC10247784, “Physiological activation of human and mouse bitter taste receptors by bile acids” (Communications Biology, 2023).
Several values for one entry are separate records, joined by “and”; a condition that tells them apart may be missing. Identical values can stand only once.

Target: T1, human TAS2R14 (Homo sapiens, UniProt Q9NYV8)
T1 construct: expressed in transfected cells; host or cells: HEK293T-Gα16gust44
T1 sequence (Q9NYV8 1-317): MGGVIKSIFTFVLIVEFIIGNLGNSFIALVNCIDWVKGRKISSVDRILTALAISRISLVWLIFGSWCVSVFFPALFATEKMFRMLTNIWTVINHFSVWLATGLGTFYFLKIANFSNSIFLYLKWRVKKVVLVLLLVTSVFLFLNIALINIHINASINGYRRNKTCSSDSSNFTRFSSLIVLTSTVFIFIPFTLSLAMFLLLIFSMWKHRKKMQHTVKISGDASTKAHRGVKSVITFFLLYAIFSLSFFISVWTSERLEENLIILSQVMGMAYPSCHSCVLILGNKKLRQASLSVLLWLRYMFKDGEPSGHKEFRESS
Assay: Calcium imaging assay (FLIPR), HEK293T-Gα16gust44 cells transfected with human TAS2R14
Type: cell-based
Details: for RLU: TAS2R14 trace
Method: This set of bile acids was chosen because of their commercial availability in high purities, their diversity within the class of bile acids and their previous detection and quantitation in human blood. Stock solutions were prepared in DMSO.
As basal growth medium for the HEK293T-Gα16gust44 cell line[17],[59] served Dulbecco’s modified eagle medium (DMEM) (Thermo Fisher Scientific, Darmstadt, Germany) supplemented with 10 % fetal bovine serum (Sigma-Aldrich, Steinheim, Germany), 2 mM L-glutamine (Sigma-Aldrich, Steinheim, Germany), 100 units/ml penicillin (Sigma Aldrich, Steinheim, Germany) and 100 µg/ml streptomycin (Sigma Aldrich, Steinheim, Germany). Growth conditions were 37 °C, 5 % CO2 and saturated air-humidity[60].
HEK293T-Gα16gust44 cells were seeded on poly-D-lysine (10 µg/ml) coated 96-well plates to reach a confluence of 40-60 % the next day. For transient transfection 150 ng of plasmid DNA containing the receptor of interest and 0.3 µl lipofectamine 2000 (Thermo Fisher Scientific, Darmstadt, Germany) per well were used and transfection took place according to the manual of lipofectamine 2000. […] The empty vector DNA (mock) was transfected as negative control[14],[41].
Cells were loaded using the calcium-sensitive fluorescent dye Fluo-4-AM (Abcam, Cambridge, Great Britain) in the presence of 2.5 mM probenecid (Sigma-Aldrich, Steinheim, Germany) the day after transfection[13],[41]. 1 h after loading, cells were washed with C1 buffer using a BioTek Cell Washer, incubated in the dark for half an hour and washed again. For automated agonist application and measurement of fluorescence changes, a FLIPR^TETRA device (Molecular Devices, San José, United States) was used. Viability of cells was tested by application of 100 nM Somatostatin 14 (Bachem, Bubendorf, Switzerland)[42].
Measured data were negative control corrected by subtracting the signal of the mock-transfected cells and exported to Microsoft Excel using the FLIPR software ScreenWorks 4.2. In Microsoft Excel software, standardization of maximum fluorescence intensities to the basal fluorescence and normalization to the buffer-only control was done to calculate the relative fluorescence changes (ΔF/F).
Initial screening experiments performed in duplicate wells were confirmed by at least one replication and representative traces were selected for display. All dose-response relationships were determined by three independent experiments (biological replicates) performed in duplicates (technical replicates). Threshold concentrations, defined as lowest substance concentrations leading to statistically significant elevated fluorescence changes in receptor-transfected cells compared with empty vector-transfected cells, were determined using SigmaPlot with Student’s t-test to evaluate statistical significance (p < 0.01).

C[C@H](CCC(=O)O)[C@H]1CC[C@H]2[C@@H]3[C@H](O)C[C@@H]4C[C@H](O)CC[C@]4(C)[C@H]3C[C@H](O)[C@]12C [Cholic Acid, cholic acid]
Efficacy = maximal amplitude (ΔF/F) (TAS2R14, bile acids, mean): 0.2451
Efficacy (maximal amplitude ΔF/F), individual data points (TAS2R14, bile acids, single replicates, listed as CA): 0.2582 and 0.2878 and 0.1894
RLU (Time (s) 0): 0 RLU
RLU (Time (s) 2 (Taurocholic Acid 2.016)): 8.733 RLU
RLU (Time (s) 4 (Taurocholic Acid 4.016)): -17.1002 RLU
RLU (Time (s) 6 (Taurocholic Acid 6.016)): -14.5682 RLU
RLU (Time (s) 8 (Taurocholic Acid 8.016)): -36.4848 RLU
RLU (Time (s) 12 (Taurocholic Acid 12.016)): -26.3442 RLU
RLU (Time (s) 14 (Taurocholic Acid 14.016)): -33.528 RLU
RLU (Time (s) 16 (Taurocholic Acid 16.016)): -31.0627 RLU
RLU (Time (s) 18 (Taurocholic Acid 18.016)): -30.2662 RLU
RLU (Time (s) 18.797 (Chenodeoxycholic Acid 18.765)): -22.7559 RLU
RLU (Time (s) 20.797 (Chenodeoxycholic Acid 20.781)): -44.5987 RLU
RLU (Time (s) 22.797 (Chenodeoxycholic Acid 22.781)): 9.863 RLU
RLU (Time (s) 24.797 (Chenodeoxycholic Acid 24.781)): -6.39 RLU
RLU (Time (s) 26.797 (Chenodeoxycholic Acid 26.781)): 16.5716 RLU
RLU (Time (s) 28.797 (Chenodeoxycholic Acid 28.781)): 41.6203 RLU
RLU (Time (s) 30.797 (Chenodeoxycholic Acid 30.781)): 60.9467 RLU
RLU (Time (s) 32.797 (Chenodeoxycholic Acid 32.781)): 99 RLU
RLU (Time (s) 34.797 (Chenodeoxycholic Acid 34.781)): 154.774 RLU
RLU (Time (s) 36.797 (Chenodeoxycholic Acid 36.781)): 189.099 RLU
RLU (Time (s) 38.797 (Chenodeoxycholic Acid 38.781)): 207.548 RLU
RLU (Time (s) 40.797 (Chenodeoxycholic Acid 40.781)): 286.95 RLU
RLU (Time (s) 42.797 (Chenodeoxycholic Acid 42.781)): 332.949 RLU
RLU (Time (s) 44.797 (Chenodeoxycholic Acid 44.781)): 381.413 RLU
RLU (Time (s) 46.797 (Chenodeoxycholic Acid 46.781)): 432.303 RLU
RLU (Time (s) 48.797 (Chenodeoxycholic Acid 48.781)): 481.551 RLU
RLU (Time (s) 50.797 (Chenodeoxycholic Acid 50.781)): 522.709 RLU
RLU (Time (s) 52.797 (Chenodeoxycholic Acid 52.781)): 573.985 RLU
RLU (Time (s) 54.797 (Chenodeoxycholic Acid 54.781)): 600.804 RLU
RLU (Time (s) 56.797 (Chenodeoxycholic Acid 56.781)): 603.138 RLU
RLU (Time (s) 58.797 (Chenodeoxycholic Acid 58.781)): 677.301 RLU
RLU (Time (s) 60.797 (Chenodeoxycholic Acid 60.781)): 689.232 RLU
RLU (Time (s) 62.797 (Chenodeoxycholic Acid 62.781)): 740.761 RLU
RLU (Time (s) 64.797 (Chenodeoxycholic Acid 64.781)): 760.673 RLU
RLU (Time (s) 66.797 (Chenodeoxycholic Acid 66.781)): 793.47 RLU
RLU (Time (s) 68.797 (Chenodeoxycholic Acid 68.781)): 795.682 RLU
RLU (Time (s) 70.797 (Chenodeoxycholic Acid 70.781)): 846.508 RLU
RLU (Time (s) 72.797 (Chenodeoxycholic Acid 72.781)): 873.655 RLU
RLU (Time (s) 74.797 (Chenodeoxycholic Acid 74.781)): 945.307 RLU
RLU (Time (s) 76.797 (Chenodeoxycholic Acid 76.781)): 951.601 RLU
RLU (Time (s) 78.797 (Chenodeoxycholic Acid 78.781)): 969.484 RLU
RLU (Time (s) 80.797 (Chenodeoxycholic Acid 80.781)): 1026.08 RLU
RLU (Time (s) 82.797 (Chenodeoxycholic Acid 82.781)): 1051.68 RLU
RLU (Time (s) 84.797 (Chenodeoxycholic Acid 84.781)): 1028.13 RLU
RLU (Time (s) 86.797 (Chenodeoxycholic Acid 86.781)): 1075.38 RLU
RLU (Time (s) 88.797 (Chenodeoxycholic Acid 88.781)): 1071.24 RLU
RLU (Time (s) 90.797 (Chenodeoxycholic Acid 90.781)): 1092.31 RLU
RLU (Time (s) 92.797 (Chenodeoxycholic Acid 92.781)): 1143.7 RLU
RLU (Time (s) 94.797 (Chenodeoxycholic Acid 94.781)): 1154.9 RLU
RLU (Time (s) 96.797 (Chenodeoxycholic Acid 96.781)): 1163.63 RLU
RLU (Time (s) 98.797 (Chenodeoxycholic Acid 98.781)): 1184.89 RLU
RLU (Time (s) 100.797 (Chenodeoxycholic Acid 100.781)): 1211.25 RLU
RLU (Time (s) 102.797 (Chenodeoxycholic Acid 102.781)): 1207.36 RLU
RLU (Time (s) 104.797 (Chenodeoxycholic Acid 104.781)): 1232.88 RLU
RLU (Time (s) 106.797 (Chenodeoxycholic Acid 106.781)): 1256.04 RLU
RLU (Time (s) 108.797 (Chenodeoxycholic Acid 108.781)): 1236.19 RLU
RLU (Time (s) 110.797 (Chenodeoxycholic Acid 110.781)): 1242.72 RLU
RLU (Time (s) 112.797 (Chenodeoxycholic Acid 112.781)): 1266.26 RLU
RLU (Time (s) 114.797 (Chenodeoxycholic Acid 114.781)): 1269.15 RLU
RLU (Time (s) 116.797 (Chenodeoxycholic Acid 116.781)): 1265.61 RLU
RLU (Time (s) 118.797 (Chenodeoxycholic Acid 118.781)): 1260.33 RLU
RLU (Time (s) 120.797 (Chenodeoxycholic Acid 120.781)): 1305.24 RLU
RLU (Time (s) 122.797 (Chenodeoxycholic Acid 122.781)): 1269.8 RLU
RLU (Time (s) 124.797 (Chenodeoxycholic Acid 124.781)): 1271.64 RLU
RLU (Time (s) 126.797 (Chenodeoxycholic Acid 126.781)): 1263.68 RLU
RLU (Time (s) 128.797 (Chenodeoxycholic Acid 128.781)): 1291.8 RLU
RLU (Time (s) 130.797 (Chenodeoxycholic Acid 130.781)): 1262.68 RLU
RLU (Time (s) 132.797 (Chenodeoxycholic Acid 132.781)): 1269.55 RLU
RLU (Time (s) 134.797 (Chenodeoxycholic Acid 134.781)): 1262.84 RLU
RLU (Time (s) 136.797 (Chenodeoxycholic Acid 136.781)): 1277.95 RLU
RLU (Time (s) 137.562 (Taurocholic Acid 137.563, Chenodeoxycholic Acid 137.546)): 1261.13 RLU
RLU (Time (s) 143.578 (Taurocholic Acid 143.563, Chenodeoxycholic Acid 143.546)): 1235.79 RLU
RLU (Time (s) 149.578 (Taurocholic Acid 149.563, Chenodeoxycholic Acid 149.546)): 1235.83 RLU
RLU (Time (s) 155.578 (Taurocholic Acid 155.563, Chenodeoxycholic Acid 155.546)): 1156.37 RLU
RLU (Time (s) 161.578 (Taurocholic Acid 161.563, Chenodeoxycholic Acid 161.546)): 1154.38 RLU
RLU (Time (s) 167.578 (Taurocholic Acid 167.563, Chenodeoxycholic Acid 167.546)): 1122.87 RLU
RLU (Time (s) 173.578 (Taurocholic Acid 173.563, Chenodeoxycholic Acid 173.546)): 1009.37 RLU
RLU (Time (s) 179.578 (Taurocholic Acid 179.563, Chenodeoxycholic Acid 179.546)): 994.85 RLU
RLU (Time (s) 191.578 (Taurocholic Acid 191.563, Chenodeoxycholic Acid 191.546)): 855.583 RLU
RLU (Time (s) 197.578 (Taurocholic Acid 197.563, Chenodeoxycholic Acid 197.546)): 818.047 RLU
RLU (Time (s) 209.578 (Taurocholic Acid 209.563, Chenodeoxycholic Acid 209.546)): 723.754 RLU
RLU (Time (s) 221.578 (Taurocholic Acid 221.563, Chenodeoxycholic Acid 221.546)): 629.159 RLU
RLU (Time (s) 233.578 (Taurocholic Acid 233.563, Chenodeoxycholic Acid 233.546)): 528.668 RLU
RLU (Time (s) 239.578 (Taurocholic Acid 239.563, Chenodeoxycholic Acid 239.546)): 477.512 RLU
RLU (Time (s) 245.578 (Taurocholic Acid 245.563, Chenodeoxycholic Acid 245.546)): 438.571 RLU
RLU (Time (s) 293.578 (Taurocholic Acid 293.563, Chenodeoxycholic Acid 293.546)): 221.346 RLU
RLU (Time (s) 299.578 (Taurocholic Acid 299.563, Chenodeoxycholic Acid 299.546)): 202.892 RLU
RLU (Time (s) 305.578 (Taurocholic Acid 305.563, Chenodeoxycholic Acid 305.546)): 181.254 RLU
RLU (Time (s) 311.578 (Taurocholic Acid 311.563, Chenodeoxycholic Acid 311.546)): 152.075 RLU
RLU (Time (s) 317.578 (Taurocholic Acid 317.563, Chenodeoxycholic Acid 317.546)): 165.461 RLU
RLU (Time (s) 323.578 (Taurocholic Acid 323.563, Chenodeoxycholic Acid 323.546)): 152.075 RLU
RLU (Time (s) 329.578 (Taurocholic Acid 329.563, Chenodeoxycholic Acid 329.546)): 111.269 RLU
RLU (Time (s) 335.578 (Taurocholic Acid 335.563, Chenodeoxycholic Acid 335.546)): 88.8846 RLU
RLU (Time (s) 341.578 (Taurocholic Acid 341.563, Chenodeoxycholic Acid 341.546)): 75.1088 RLU
RLU (Time (s) 347.578 (Taurocholic Acid 347.563, Chenodeoxycholic Acid 347.546)): 60.0955 RLU
RLU (Time (s) 353.578 (Taurocholic Acid 353.563, Chenodeoxycholic Acid 353.546)): 37.7794 RLU
RLU (Time (s) 359.578 (Taurocholic Acid 359.563, Chenodeoxycholic Acid 359.546)): 47.6877 RLU
Activation threshold concentration TAS2R14 (lowest concentration with significantly increased fluorescence vs empty vector (p < 0.01)): 300 µM
